Reference: ChEMBL document CHEMBL1201862, “PubChem BioAssay data set” (2004)
Several values for one entry are separate records, joined by “and”; a condition that tells them apart may be missing. Equal entries are not always repeated. One block for each compound: values may come before it. Activity calls are given as the source filed them.

Legend:
Cytochrome P450 2D6 = Cytochrome P450 2D6 (Homo sapiens, UniProt P10635);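 further: CYP2D6 member of a cytochrome P450 panel assay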
[1] = Trypanosoma cruzi growth suppression in host cells – NIH3T3 host cells, beta-gal luminescence, confirmation (AID 2044); assay type: functional, cell-based;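 further: intracellular parasites grown in NIH/3T3 mouse fibroblasts as host cells; luminescent beta-galactosidase reporter signal from transgenic T. cruzi replicating inside host cells; inhibitors lower the luminescence signal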
[2] = NIH3T3 cell viability loss – ATP luminescence, mouse fibroblasts, counter-screen, dose response (AID 2010); assay type: functional, cell-based;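 further: cells exposed to compound for about 90 hours before reading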
Cytochrome P450 2C9 = Cytochrome P450 2C9 (Homo sapiens, UniProt P11712)
[3] = target: T1, Corticotropin-releasing factor receptor 2/Corticotropin-releasing factor-binding protein (Homo sapiens, UniProt P24387+Q13324); test: activators of CRF receptor 2 with binding protein – uHTS hits, confirmation (AID 602473); assay type: functional; conditions: read-out: EC50_Mean
T1 sequence (Q13324 whole entry): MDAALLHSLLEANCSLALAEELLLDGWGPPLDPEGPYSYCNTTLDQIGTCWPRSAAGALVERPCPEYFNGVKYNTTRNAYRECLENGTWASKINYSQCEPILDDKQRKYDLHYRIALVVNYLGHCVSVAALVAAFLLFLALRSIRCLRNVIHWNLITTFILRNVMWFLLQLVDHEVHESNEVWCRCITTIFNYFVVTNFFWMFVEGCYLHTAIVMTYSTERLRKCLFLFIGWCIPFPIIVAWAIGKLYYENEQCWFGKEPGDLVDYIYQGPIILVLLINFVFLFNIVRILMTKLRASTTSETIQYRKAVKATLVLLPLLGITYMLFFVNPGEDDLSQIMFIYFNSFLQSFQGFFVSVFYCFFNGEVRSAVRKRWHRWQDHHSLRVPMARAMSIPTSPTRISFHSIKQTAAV
T1 sequence (P24387 whole entry): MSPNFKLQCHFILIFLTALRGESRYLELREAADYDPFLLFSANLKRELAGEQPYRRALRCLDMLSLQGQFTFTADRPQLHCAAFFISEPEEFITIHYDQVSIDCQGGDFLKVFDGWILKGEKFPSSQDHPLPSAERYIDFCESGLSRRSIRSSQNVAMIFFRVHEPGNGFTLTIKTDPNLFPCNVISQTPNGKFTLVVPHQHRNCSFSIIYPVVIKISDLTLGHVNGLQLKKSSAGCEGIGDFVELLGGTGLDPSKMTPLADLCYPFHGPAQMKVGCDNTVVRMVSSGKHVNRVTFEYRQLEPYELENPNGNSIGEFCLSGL

[4] = viability of uninfected HEp-2 cells – cell-based, HTS, cytotoxicity control for RSV inhibitor project, dose response (AID 2410); assay type: functional; conditions: human respiratory syncytial virus
Cytochrome P450 1A2 = target: T2, Cytochrome P450 1A2 (Homo sapiens, UniProt P05177);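 further: PubChem cytochrome P450 panel assay, CYP1A2 panel member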
T2 sequence (P05177 whole entry): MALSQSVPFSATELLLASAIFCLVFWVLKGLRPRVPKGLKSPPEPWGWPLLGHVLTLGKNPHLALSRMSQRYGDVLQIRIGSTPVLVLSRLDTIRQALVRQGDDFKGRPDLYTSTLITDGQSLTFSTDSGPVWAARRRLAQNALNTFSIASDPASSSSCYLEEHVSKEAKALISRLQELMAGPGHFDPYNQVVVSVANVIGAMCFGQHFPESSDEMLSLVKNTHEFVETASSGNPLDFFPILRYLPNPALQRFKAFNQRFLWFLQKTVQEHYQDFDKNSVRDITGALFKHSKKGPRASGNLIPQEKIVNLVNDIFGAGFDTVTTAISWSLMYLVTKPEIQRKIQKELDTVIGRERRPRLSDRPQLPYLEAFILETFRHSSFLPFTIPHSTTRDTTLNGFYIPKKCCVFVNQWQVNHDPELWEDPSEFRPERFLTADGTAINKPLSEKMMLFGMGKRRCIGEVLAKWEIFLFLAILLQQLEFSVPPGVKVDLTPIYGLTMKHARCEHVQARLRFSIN

Cytochrome P450 2D6, sequence (P10635 whole entry): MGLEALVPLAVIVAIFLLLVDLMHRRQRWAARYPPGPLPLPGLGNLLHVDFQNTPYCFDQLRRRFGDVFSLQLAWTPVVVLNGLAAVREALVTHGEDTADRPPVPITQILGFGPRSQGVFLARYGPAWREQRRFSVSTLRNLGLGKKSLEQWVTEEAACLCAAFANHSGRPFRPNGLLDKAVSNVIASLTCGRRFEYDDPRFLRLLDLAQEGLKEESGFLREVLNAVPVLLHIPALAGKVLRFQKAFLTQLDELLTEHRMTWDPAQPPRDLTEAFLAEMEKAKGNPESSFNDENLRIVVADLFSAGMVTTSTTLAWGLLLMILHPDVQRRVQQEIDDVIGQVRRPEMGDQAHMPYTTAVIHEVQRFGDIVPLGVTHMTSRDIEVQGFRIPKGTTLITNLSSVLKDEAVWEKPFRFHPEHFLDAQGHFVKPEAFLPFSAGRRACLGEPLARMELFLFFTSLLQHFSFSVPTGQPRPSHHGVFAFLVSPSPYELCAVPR
Cytochrome P450 2C9, sequence (P11712 whole entry): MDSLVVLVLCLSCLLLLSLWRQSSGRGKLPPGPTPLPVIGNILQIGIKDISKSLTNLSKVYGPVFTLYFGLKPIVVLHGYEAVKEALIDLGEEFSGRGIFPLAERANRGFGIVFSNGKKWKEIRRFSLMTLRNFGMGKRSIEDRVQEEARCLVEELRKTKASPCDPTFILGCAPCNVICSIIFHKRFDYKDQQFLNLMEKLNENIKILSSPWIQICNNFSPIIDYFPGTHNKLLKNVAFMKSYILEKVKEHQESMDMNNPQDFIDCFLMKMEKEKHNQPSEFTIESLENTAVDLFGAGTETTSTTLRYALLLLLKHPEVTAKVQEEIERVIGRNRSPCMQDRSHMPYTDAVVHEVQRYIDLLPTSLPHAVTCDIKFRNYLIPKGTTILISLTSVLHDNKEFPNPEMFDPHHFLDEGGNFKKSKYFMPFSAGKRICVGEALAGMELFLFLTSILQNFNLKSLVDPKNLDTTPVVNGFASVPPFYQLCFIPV

AC50 (Cytochrome P450 2D6): 0.562 µM (inconclusive)
Compound: CCOC(=O)NC(=O)CSc1nc2cc(OCC)ccc2[nH]1

Compound: O=C(Nc1ccncc1)c1ccc(Cl)c(Cl)c1
EC50 [1]: 0.472 µM (active)
EC50 [2]: > 30 µM (not active)

AC50 (Cytochrome P450 2C9): 15.8 µM (inconclusive)
Compound: CCOC(=O)C(C)Sc1nnc(CNC(=O)c2ccc(OC)cc2)n1C1CCCCC1 (centres undefined)

EC50 [3]: > 53 µM (inactive)
Compound: c1ccc(CCNc2nc3ccccc3n3nnnc23)cc1

Compound: Cc1cc(C)n(-c2ccc3nnc(C)n3n2)n1
CC50 [4]: 22 µM (active)

AC50 (Cytochrome P450 1A2): 3.16 µM (inconclusive)
Compound: Clc1ccc2c(N3CCC(CCC4CCN(c5ncnc6cc(Cl)ccc56)CC4)CC3)ncnc2c1

Compound: CC(Oc1ccc(-c2ccccc2)cc1)C(=O)O (centres undefined)
AC50 (Cytochrome P450 1A2): 25.1 µM (inconclusive)
AC50 (Cytochrome P450 2C9): 39.8 µM (inconclusive)

AC50 (Cytochrome P450 2D6): 22.4 µM (inconclusive)
Compound: O=C1C2Sc3nc(O)sc3C(c3ccccc3)C2C(=O)N1c1ccc(Cl)cc1 (centres undefined)

AC50 (Cytochrome P450 2D6): 20 µM (inconclusive)
AC50 (Cytochrome P450 1A2): 25.1 µM (inconclusive)
Compound: O=C(c1cc(C(F)(F)F)cc(C(F)(F)F)c1)N1CCC[C@@]2(CCN(c3ccccn3)C2)C1

Compound: Cn1c(=O)c([N+](=O)[O-])c(NCCc2ccccc2)c2ccccc21
EC50 [1]: 0.554 µM (active)
EC50 [2]: > 60 µM (not active)

AC50 (Cytochrome P450 2D6): 20 µM (inconclusive)
Compound: COc1cccc(-c2cncnc2NCc2cccs2)c1

Compound: CC(C)NC[C@@H](O)COc1ccc(CCOCC2CC2)cc1
AC50 (Cytochrome P450 1A2): 15.8 µM (inconclusive) and 12.6 µM (inconclusive)

AC50 (Cytochrome P450 2D6): 39.8 µM (inconclusive)
AC50 (Cytochrome P450 2C9): 39.8 µM (inconclusive)
Compound: Cc1ccc(CNC(=O)c2nnn(-c3cccc(C)c3)c2N)cc1

Compound: Cc1[nH]c2ccc(F)cc2c1CCN(Cc1cccnc1)C(S)=Nc1ccccc1
EC50 [1]: 0.953 µM (active)
EC50 [2]: > 60 µM (not active)

Compound: O=C(c1cnccn1)N1CCC[C@@]2(CCN(c3ccccc3)C2)C1
AC50 (Cytochrome P450 1A2): 15.8 µM (inconclusive)

AC50 (Cytochrome P450 2C9): 10 µM (inconclusive)
Compound: O=S(=O)(c1ccccc1)N1CCC[C@@]2(CCN(C(c3ccccc3)c3ccccc3)C2)C1

AC50 (Cytochrome P450 1A2): 15.8 µM (inconclusive)
Compound: COC(=O)Cn1c(C(=O)N2CCCC2)cc2c1C[C@H]1CN(C(=O)c3ccccc3)[C@@](Cc3ccc(F)cc3)(C(=O)OC)[C@@H]21

AC50 (Cytochrome P450 2C9): 0.794 µM (inconclusive)
Compound: COc1ccc2[nH]cc(CCNc3ccnc(-c4cccnc4)n3)c2c1

AC50 (Cytochrome P450 1A2): 25.1 µM (inconclusive)
Compound: CN(C)C(=O)c1ccc(-c2cncnc2NC2CCNCC2)cc1

AC50 (Cytochrome P450 2D6): 39.8 µM (inconclusive)
AC50 (Cytochrome P450 1A2): 12.6 µM (inconclusive)
AC50 (Cytochrome P450 2C9): 31.6 µM (inconclusive)
Compound: N#Cc1cccc(NC(=O)N2CCCC3(CCN(C(=O)c4cccc(F)c4)CC3)C2)c1

Compound: COc1cc(CN2CCCC(C(=O)Nc3cccc(-n4cccn4)c3)C2)ccc1F (centres undefined)
EC50 [1]: 0.194 µM (active)
EC50 [2]: > 60 µM (not active)

Compound: O=C(Nc1ccccc1C(=O)O)c1cc(S(=O)(=O)N2CCCCC2)c(Cl)cc1Cl
EC50 [1]: 3.6 µM (active)
EC50 [2]: 14 µM (active)

Compound: Clc1ccc2[nH]cc(-c3nnnn3-c3ccc4ccccc4c3)c2c1
EC50 [1]: 1.97 µM (active)
EC50 [2]: > 60 µM (not active)

Compound: O=C(NCc1nnc2c3ccccc3c(-c3ccccc3)nn12)c1ccc(Cl)cc1
CC50 [4]: 7.36 µM (active)

Compound: CCN1CCCc2cc(CN(CCN3CCOCC3)C(S)=Nc3cccc(C)c3)ccc21
EC50 [1]: 1.62 µM (active)
EC50 [2]: > 60 µM (not active)

Compound: CCN(CC)CCCOC(=O)c1ccc(OC)cc1O
EC50 [1]: 0.743 µM (active)
EC50 [2]: > 60 µM (not active)

AC50 (Cytochrome P450 2C9): 5.62 µM (inconclusive)
Compound: Cc1ccc(S(=O)(=O)c2nc(S(=O)(=O)c3ccc(C)cc3)c(NCc3ccco3)s2)cc1

Compound: CC(=O)Nc1ccc(Cc2ccc3nc(O)cc(C)c3c2)cc1
AC50 (Cytochrome P450 2C9): 6.31 µM (inconclusive)

AC50 (Cytochrome P450 2D6): 2.51 µM (inconclusive)
AC50 (Cytochrome P450 2C9): 3.98 µM (inconclusive)
Compound: CCCNC(=O)OC[C@@H]1O[C@H](CCO/N=C(\C)CCN2CCCCc3nc(C)c(C)cc32)C=C[C@@H]1Oc1ccc(OC)cc1

AC50 (Cytochrome P450 2D6): 20 µM (inconclusive)
AC50 (Cytochrome P450 1A2): 6.31 µM (inconclusive)
Compound: CCOc1ccccc1Nc1nc(-c2sc(NC(=O)c3ccccc3)nc2C)cs1

Compound: COc1ccc(C2SCC(=O)N2CC23CC4CC(CC(C4)C2)C3)cc1 (centres undefined)
EC50 [1]: 2.87 µM (active)
EC50 [2]: > 60 µM (not active)

Compound: Cn1c(C(=O)OC(C(=O)NC2CCCCC2)c2ccncc2)cc2sccc21 (centres undefined)
EC50 [1]: > 30 µM (not active)
EC50 [2]: > 30 µM (not active)

AC50 (Cytochrome P450 1A2): 25.1 µM (inconclusive)
Compound: CCCCSC(=S)N(C)C1CCS(=O)(=O)C1 (centres undefined)

AC50 (Cytochrome P450 1A2): 10 µM (inconclusive)
AC50 (Cytochrome P450 2C9): 12.6 µM (inconclusive)
Compound: COCCn1c(=O)c(-c2cccc(C#N)c2)nc2cnc(N3CCOCC3)nc21

Compound: CSc1ccc(CN(C)CCc2ccccn2)cc1
EC50 [1]: 0.143 µM (active)
EC50 [2]: > 30 µM (not active)

AC50 (Cytochrome P450 2C9): 6.31 µM (inconclusive)
Compound: O=C(C[N+]1(c2ccccc2)CCOCC1)c1ccccc1

Compound: CCN1CCN(CC(=O)N2CCCC(C(=O)c3ccc(Oc4ccccc4)cc3)C2)CC1 (centres undefined)
EC50 [1]: 0.478 µM (active)
EC50 [2]: > 30 µM (not active)

AC50 (Cytochrome P450 2C9): 0.398 µM (inconclusive)
Compound: COc1ccccc1CNc1ncnc2ccc(-c3ccc4c(c3)OCO4)cc12

Compound: OCCC1CN(Cc2ccc3nonc3c2)CCN1Cc1ccsc1 (centres undefined)
EC50 [1]: 0.452 µM (active)
EC50 [2]: > 60 µM (not active)

EC50 [3]: > 53 µM (inactive)
Compound: Cc1csc(NC(=O)Cc2ccccc2[N+](=O)[O-])n1

AC50 (Cytochrome P450 2D6): 20 µM (inconclusive)
AC50 (Cytochrome P450 1A2): 25.1 µM (inconclusive)
Compound: CC(C)OC(=O)c1cc2c(ccn2C)n1CC(=O)N1CCC(Cc2ccccc2)CC1

AC50 (Cytochrome P450 2C9): 2.51 µM (inconclusive)
Compound: C/C(CCC(=O)OC[C@@H]1O[C@H](C#Cc2ccccc2)C=C[C@@H]1Oc1ccc(C)cc1)=N/O[C@@H](C)CN1CCCc2nc(C)c(C)cc21

Compound: CCOc1cc(C)c(C(C)C)cc1S(=O)(=O)n1cnc(C)c1
EC50 [1]: 1.53 µM (active)
EC50 [2]: 8.49 µM (active)
EC50 [3]: > 53 µM (inactive)

AC50 (Cytochrome P450 2D6): 3.16 µM (inconclusive)
Compound: COc1ccc(-c2ccc3c(n2)CCCN3C[C@H](O)CN2CCCc3nc(C)c(C)cc32)cc1

Compound: CCN1CCN(c2ccc(NC(=O)C(C)C)cc2Cl)CC1
AC50 (Cytochrome P450 2D6): 14.1 µM (inconclusive)

Compound: CCOC(=O)N1CCC(N2CCCC(C(=O)c3cc(F)ccc3OC)C2)CC1 (centres undefined)
EC50 [1]: 2.66 µM (active)
EC50 [2]: > 60 µM (not active)

Compound: c1ccc(Cc2ccc(OCCCNC3CCCC3)cc2)cc1
EC50 [1]: 0.781 µM (active)
EC50 [2]: > 30 µM (not active)

AC50 (Cytochrome P450 2D6): 31.6 µM (inconclusive)
Compound: Cc1cccc(CNc2cc(-c3c(C)noc3C)ncn2)c1

Compound: Cc1nn(-c2ccc([N+](=O)[O-])cc2)c2c1C(c1cccc(Br)c1)N1C(=N2)C(=O)Nc2ccccc21 (centres undefined)
EC50 [1]: 2.13 µM (active)
EC50 [2]: > 60 µM (not active)

AC50 (Cytochrome P450 2C9): 31.6 µM (inconclusive)
Compound: COc1ccc(-n2c(=O)c(-c3ccc(Cl)cc3)nc3cnc(N4CCOCC4)nc32)cc1

AC50 (Cytochrome P450 1A2): 14.1 µM (inconclusive)
Compound: CCCCC(=O)Nc1cc(OCC)c(NC(=O)c2ccccc2[N+](=O)[O-])cc1OCC

AC50 (Cytochrome P450 2C9): 12.6 µM (inconclusive)
Compound: CCN(CC)CCNC(=O)c1ccc(Cl)c(S(=O)(=O)Nc2ccccc2OC)c1

AC50 (Cytochrome P450 1A2): 1.26 µM (inconclusive)
AC50 (Cytochrome P450 2C9): 3.16 µM (inconclusive)
Compound: CSc1cc(C)nc(NC(C)=O)n1

EC50 [3]: 9.53 µM (active)
Compound: COc1ccc(CC(=O)NC(=S)Nc2cccc(C)c2)cc1

AC50 (Cytochrome P450 2D6): 15.8 µM (inconclusive)
AC50 (Cytochrome P450 2C9): 17.8 µM (inconclusive)
Compound: COc1cc(O)oc1/C=N/c1ccc(C(F)(F)F)cc1

Compound: O=C(N/N=C/c1ccc([N+](=O)[O-])o1)C(O)c1ccccc1 (centres undefined)
EC50 [1]: 0.565 µM (active)
EC50 [2]: > 60 µM (not active)

Compound: Cc1ccc(S(=O)(=O)N/N=C\c2cn(-c3ccccc3)nc2-c2ccccc2)cc1
CC50 [4]: 13.2 µM (active)

AC50 (Cytochrome P450 1A2): 22.4 µM (inconclusive)
Compound: Cc1cc(C(=O)N/N=C/c2cccc(OC(=O)c3ccco3)c2)[nH]n1

AC50 (Cytochrome P450 2D6): 39.8 µM (inconclusive)
Compound: CC(C)(C)c1cc(/C=C(\C#N)C(N)=S)cc(C(C)(C)C)c1O [TYRPHOSTIN AG 879]
